Measured values taken from US20180221433A1, “ANGIOTENSINS IN MUSCULAR DYSTROPHY” (University of Iowa Research Foundation, priority 2013, published 2018).
Positions of bridges follow the written chain, without caps; N, C: chain ends. No end group written: not given here.

Tests used:
Type in all cases: in vivo, mouse
[1] = test system: Sgcd −/− mice; test: H&E and Masson's Trichrome stain of quadriceps muscle for fibrosis, Example 4; conditions: osmotic minipump 8 weeks, TXA127 500, Pancyte 50, TXA301 50 μg/kg/day, vs saline, FIG. 10
Protocol: (§1) A total of 32 Sgcd −/− mice were randomly assigned to one of four treatment groups (n=8 in each): a saline group (vehicle) a TXA127 group, a Pancyte group, and a TXA301 group. The doses of Angiotensin (1-7) peptides administered was 500 μg/kg/day for TXA127, 50 μg/kg/day for Pancyte, and 50 μg/kg/day for TXA301. Osmotic minipumps containing the treatments were implanted in mice at 28-35 weeks of age, and the angiotensin (1-7) peptides were infused for 8 weeks. For the last three weeks of treatment, the mice were put in cages with running wheels attached to calculate the amount of voluntary exercise performed by each animal. Total number of wheel revolutions (distance ran) were collected daily. At the end of 8 weeks of treatment, quadriceps muscles were harvested from the mice for histopathological and oxidative stress analyses.
An H&E stain was used to examine the dystrophic morphology of the quadriceps muscles of the mice.

[2] = test system: Sgcd −/− mice; test: Voluntary running-wheel exercise in Sgcd −/− mice, Example 4; conditions: for amount of voluntary exercise performed (average running-wheel revolutions, weeks 6, 7 and 8) / amount of exercise performed (accumulated totals over the three week test period): osmotic minipump 8 weeks, vs saline; for amount of voluntary exercise performed (average running-wheel revolutions, weeks 6, 7 and 8): TXA127 500, Pancyte 50, TXA301 50 μg/kg/day, FIG. 8; for amount of exercise performed (accumulated totals over the three week test period): TXA127 500, TXA301 50 μg/kg/day, FIG. 9
Excerpt: In this Example, Sarcoglycan delta deficient mice (Sgcd−/−), an established mouse model of Limb Girdle Muscular Dystrophy-2F (LGMD-2F), was used to examine the effects of angiotensin (1-7) peptides on the progression of functional impairment and fibrosis in sufferers of the disease.
as §1

[3] = test system: Sgcd −/− mice; test: Radio-telemetry of blood pressure, heart rate and locomotor activity in Sgcd −/− mice
Excerpt: In this Example, Sgcd −/− mice, a known model of limb-girdle muscular dystrophy, were used to assess the effects of angiotensin (1-7) peptides on skeletal muscle fibrosis, blood pressure, heart rate, cardiac activity, baroreflex sensitivity, oxidative stress, AT1R receptor expression, and resting cardiac and vagal sympathetic tone. Sgcd −/− mice are missing a key component of the sarcoglycan complex, specifically, they are missing a link between the F-actin cytoskeleton and the extracellular matrix. This defect causes muscle wasting and weakness due to a reduction in muscle fiber integrity and dysregulation in cell signaling in muscle cells. It has been previously shown that this defect results in a reduction of locomotor activity and autonomic dysfunction at a young age. The autonomic dysfunction is thought to lead to cardiac dysfunction later in life.
(§2) To examine the effects of angiotensin (1-7) peptides on disruption of normal motor activity in Sgcd −/− mice, conscious, young (10-15 wks) Sgcd−/− and control C57BL6 mice were analyzed by radio-telemetry. Radio-telemeters were implanted into the aorta via the left carotid artery under ketamine-xylazine anesthesia when mice were 10 weeks of age. Following recovery, blood pressure, heart rate and locomotor activity were measured 24 hours/day. Blood pressure measurements were sampled at 2000 Hz for 1 hour periods to enable beat-to-beat measurements of systolic arterial pressure and pulse interval (PI). Baroreflex control of heart rate was assessed from spontaneous fluctuations in systolic blood pressure and pulse interval using known sequence techniques.
Osmotic minipumps (Alzet) were implanted with either Ang (1-7) (also referred to as “TXA127”) or vehicle in mice pups at 3 weeks of age, under ketamine-xylazine anesthesia.
(§3) Data were collected over 2-3 days, and 24 hour averages were calculated. Separate groups of control and Sgcd−/− mice were infused with Ang-(1-7) (300 ng/kg/min) for 8 weeks beginning at 3 weeks of age. Measurements were obtained in these mice using the same protocols as described above.
(§4) Data in this example are presented as ±SE. Results were analyzed by ANOVA, and paired and unpaired t-tests as appropriate, significance was determined at p<0.05.

[4] = test system: Sgcd −/− mice; test: Baroreflex sensitivity and cardiac/vasomotor autonomic tone in Sgcd −/− mice; conditions: Ang-(1-7) 300 ng/kg/min for 8 weeks
Protocol: as §2
Baroreflex sensitivity was calculated from spontaneous fluctuations in systolic blood pressure and pulse interval using the sequence technique. Specifically, baroreflex sensitivity was calculated as the average slope of sequences of 4 or more consecutive blood pressure pulses where the change in blood pressure and pulse interval are positively correlated (r^2>0.85).
Cardiac sympathetic tone and parasympathetic tone were calculated from heart rate responses to the β-adrenergic receptor blocker propranolol and the muscarinic cholinergic receptor blocker methylatropine, respectively. Specifically, resting cardiac sympathetic and parasympathetic (vagal) tone was estimated from heart rate responses to propranolol (1 μg/g, IP) and methylatropine (1 μg/g, IP), respectively. Vasomotor sympathetic tone was calculated from the decrease in mean arterial blood pressure in response to injection of the ganglionic blocker chlorisondamine (12 μg/g, IP).
as §3, §4

[5] = test system: Sgcd −/− mice; test: Masson Trichrome stain of skeletal muscle (quadriceps) for fibrosis, Example 2
Protocol: as §3
(§5) To assess skeletal muscle phenotypes, paraffin sections of skeletal muscle (quadriceps) were stained with Masson Trichrome to assess histopathology and fibrosis. Frozen sections of skeletal muscle were incubated with polyclonal anti-δ and anti-β sarcoglycan primary antibody, a nuclear stain, and Alexa Fluor 488. AT1R (Ang type 1 receptor) and Mas (Ang(1-7) receptor) were detected with rabbit anti-AT1R, and anti-Mas nuclear stains, and secondary antibody goat anti-rabbit IgG. Oxidative stress (O2.^−) was measured by dihydrocthidium (DHE) fluorescence.
as §4

[6] = test system: angiotensin type 1 receptors (AT1R); test: AT1R expression in skeletal muscle sections (Alexa Fluor 488 staining); conditions: Sgcd −/− mice, Ang-(1-7) 300 ng/kg/min for 8 weeks; vs untreated Sgcd −/−; FIG. 6
Protocol: as §3, §5

[7] = test system: Sgcd −/− mice; test: Oxidative stress (superoxide) by dihydroethidium (DHE) fluorescence in skeletal muscle, Example 2; conditions: Ang-(1-7) 300 ng/kg/min for 8 weeks, vs untreated Sgcd −/−, FIG. 7
Protocol: as §3, §5, §4

[8] = test system: Sgcd −/− mice; test: Oxidative stress by DHE stain of quadriceps muscle, Example 4; conditions: TXA127 500 μg/kg/day for 8 weeks, vs saline, FIG. 11
Protocol: as §1
Dihydroethidium (DHE) was used to examine the degree of oxidative stress in treated Sgcd−/− mice. […] For quantification of degree of fibrosis, an average of six-sections of skeletal quadriceps muscle were obtained from each mouse. An intensity of fluorescence for each mouse was quantified using NIH ImageJ software and normalized to a percentage of the average fluorescence intensity measured in saline-treated Sgcd−/− mice.

Substance	fibrosis in skeletal muscle (quadriceps) [1]	amount of voluntary exercise performed (average running-wheel revolutions, weeks 6, 7 and 8) [2]	amount of exercise performed (accumulated totals over the three week test period) [2]	mean arterial blood pressure ([3]; Sgcd −/− mice, Ang-(1-7) 300 ng/kg/min by osmotic minipump for 8 weeks from 3 weeks of age, vs untreated Sgcd −/−, FIG. 2A)	24 hour average heart rate ([3]; Sgcd −/− mice, Ang-(1-7) 300 ng/kg/min for 8 weeks, vs untreated Sgcd −/− controls, FIG. 2B)	24 hour average locomotor activity ([3]; Sgcd −/− mice, Ang-(1-7) 300 ng/kg/min for 8 weeks, vs untreated Sgcd −/−, FIG. 3)	levels of locomotion compared with Control C57BL6 mice ([3]; treated Sgcd −/− mice vs Control C57BL6 mice, FIG. 3)	baroreflex sensitivity (decrease in Sgcd −/− mice) ([4]; FIG. 4A)	vasomotor sympathetic tone (increase in Sgcd −/− mice) ([4]; blood pressure response to chlorisondamine, FIG. 4D)	cardiac vagal tone (decrease in Sgcd −/− mice) ([4]; heart rate response to methylatropine, FIG. 4B)	cardiac sympathetic tone (increase in Sgcd −/− mice) ([4]; heart rate response to propranolol, FIG. 4C)	fibrosis of skeletal muscle (quadriceps) ([5]; Sgcd −/− mice, Ang-(1-7) 300 ng/kg/min for 8 weeks, vs untreated Sgcd −/−, FIG. 5)	levels of fibrosis compared with control C57BL6 mice ([5]; treated Sgcd −/− mice vs control C57BL6 mice, FIG. 5B)	AT1R receptor expression [6]	levels of superoxide (DHE fluorescence) [7]	fold improvement in exercise compared to saline control animals ([2]; TXA127 500 μg/kg/day, accumulated totals weeks 6-8, FIG. 9)	oxidative stress (DHE fluorescence intensity) [8]
Asp^1-Arg^2-Val^3-Ser^4-Ile^5-His^6-Cys^7 [PanCyte] (DRVSIHC; bridge 4-7; also: cross link type between Ser4 and Cys7 not given here) [cyclic angiotensin (1-7) peptide analog]	no reduction in fibrosis was observed																
Asp^1-Arg^2-Val^3-Ser^4-Ile^5-His^6-Cys^7 [TXA301] (DRVSIHC; bridge 4-7; also: cross link type between Ser4 and Cys7 not given here) [linear angiotensin (1-7) peptide]	some improvement	significant improvement	significant increases														
Asp^1-Arg^2-Val^3-Tyr^4-Ile^5-His^6-Pro^7 [Ang (1-7)]	significantly reduced fibrosis	significant improvement	significant increases	not significantly affected	mildly decrease	reduction in locomotor activity was drastically reduced	did not vary significantly	essentially abrogated	essentially abrogated	essentially abrogated	essentially abrogated	markedly reduced	comparable to control C57BL6 mice	essentially abrogates the increase in AT1R	strongly attenuated	more than six fold improvement	significantly attenuated
